Reference: patent US11254958B1, “Metabolic engineering of E coli with thio-phosphate” (priority 2018, dated 2022)
Where “and” joins values, the source holds several entries; their conditions need not be identical. Equal values may be shown once.

Experiments:
E. coli K-12 = test: RNA seq analysis of total RNA (FPKM); assay type: cell-based; design: hisA transcript elevation / FabB transcript elevation / TesA transcript elevation / FabD transcript elevation / FabH transcript elevation / ftsI transcript elevation / idtC transcript elevation / idtB transcript elevation: unit not given here
Protocol: (§1) E coli K12 bacteria were grown in high citrate minimal media with 5.4 g/L of thiophosphate or 2.4 g/L of Na2HPO4 for up to 12 hrs. The use of high citrate media was chosen to help lower the total amount of thiophosphate needed for growth when compared to regular M9 media (1). The media is prepared as follows: thiophosphate, 5.4 g/L; KCL 1.5 g/L; (NH4)2SO4, 2 g/L; sodium citrate 2H2O, 10 g/L. Adjust the pH to 7.5 and sterile filter the solution. Then add the following: MgSO4-7H2O, 0.2 g/L (sterilized separately as a conc. solution); glucose, 2 g/L sterilized separately by filtration). Glucose can also be sterilized by autoclaving separately. CaCl2 (11 mg/L) is also be added as needed.
For RNA seq analysis the RNA library was prepared using Illumina's TruSeq Stranded mRNA library prep (Illumina, 2010) without selection. The sequencing platform was HiSeq 2500 with a read format of PE 2×150. The coverage was at least 40 million per sample without rRNA depletion. A custom software build (Omegabioservice) of rRNA and tRNA sequences for reference mapping was used to more rapidly map rRNA sequences and avoid compression.
To get some idea of the impact of RNA stabilization via thiophosphate on specific mRNAs, RNA seq results were analyzed as FPKM (fragments per kilobase pair million) out of all reads including rRNA. This study was designed to give an absolute comparison rather than a relative comparison of transcript levels in total RNA. For control cells a total of 43 million reads of 150 bp in length were analyzed while 73.9 million reads were used in thiophosphate treated samples. The reads were mapped to a reference genome, E. coli K-12 substr. MG1655. One of the first things noticed was that many genes were not detected in both treated and control samples. Some of these absences were undoubtedly due to the low coverage resulting from the presence of numerous ribosomal RNA sequences in the preparations. However, even some transcripts readily detected by microarray analysis were not present. Other transcripts were not assessed due to their high copy number and the need for protracted computational time to quantitate. The second thing that was most obvious when comparing the two samples was there were many changes both positive and negative in the levels of transcripts for different genes. The results pointed to significant transcriptional changes induced secondarily via the general stabilization of RNA in vivo with thiophosphate.

E coli K12 bacteria = test: Agilent analyzer profile of total RNA from control and thiophosphate treated cultures; assay type: cell-based
Protocol: as §1
Total RNA was isolated using Bioline's ISOLATE II RNA mini kit. […] The rRNA ratio (23s/16s) was at least 1.6. Note small RNAs like SS RNA were not retained under the conditions used. For rRNA depleted preparations, Ribominus (Invitrogen) was then used to deplete 23S and 16S rRNA. The ribosomal depleted RNA was then concentrated with the kit's concentration module prior to gel analysis.
To further examine this idea, an Agilent analyzer was used to analyze the profiles of total RNA from control cultures and thiophosphate treated cultures (FIG. 1). It was evident that in E. coli, there was an increase in the non-ribosomal fraction, particularly between the […] and 23S ribosomal RNAs, which was even more evident in ribosomal RNA depleted samples (FIG. 1). Quantitative analysis indicated the fraction of 16S and 23S rRNA in the profile of total RNA was depleted in TP cultures relative to controls. […] This corresponds to a reduction of 8.8%. To estimate the fold increase in mRNA that could account for such a change, one needs to know the % of total RNA that is mRNA.

E coli = conditions: cited from earlier work

With OP(O)(O)=S [thio-phosphate] the maximum decrease observed (E. coli K-12) was 1550 ×, the “median fold change, transcripts for 18 of the most abundant proteins” value (E. coli K-12) was 1.55 × fold and the “median fold decrease of decreased genes” value (E. coli K-12) was 2.4. The “median fold increase of increased genes” value (E. coli K-12) was 2.75, the “transcript level of the 2 out of 18 abundant-protein genes showing reduction” value (E. coli K-12) was 80 % of normal and the “genes expressed at low levels showing negative fold changes in mRNA” value (E. coli K-12; 12 genes expressed at low levels) was 58%. The “transcripts showing negative fold changes, average stability mRNA class” value (E. coli K-12; 33 mRNAs, half-lives between 5-7 mins, platform not given) was 30%, the “transcripts showing negative fold changes, unstable mRNA class” value (E. coli K-12; 33 mRNAs, half-lives of 3 mins or less, platform not given) was 36% and the “transcripts showing negative fold changes, stable mRNA class” value (E. coli K-12; 33 mRNAs, half-lives of 11 mins or more, platform not given) was 36%. The “fold increase in total FPKM counts” value (E. coli K-12; 4,311 E. coli genes, vs controls) was 1.37 × fold, the FabB transcript elevation (E. coli K-12; RNA seq) was 98 and the FabD transcript elevation (E. coli K-12; RNA seq) was 3.1. For the same compound, the FabH transcript elevation (E. coli K-12; RNA seq) was 10.5, the “Leu A transcript fold reduction” value (E. coli K-12; RNA seq) was roughly 500 × fold and the “Leu C transcript fold reduction” value (E. coli K-12; RNA seq) was roughly 500 × fold. For the same compound, the “Leu D transcript fold reduction” value (E. coli K-12; RNA seq) was roughly 500 × fold, the TesA transcript elevation (E. coli K-12; RNA seq) was 3.5 and the accA transcript elevation (E. coli K-12; RNA seq) was 19.8 ×. The accC transcript elevation (E. coli K-12; RNA seq) was 6.2 ×, the accD transcript elevation (E. coli K-12; RNA seq) was 3.39 × and 3.4 × and the “adk transcript fold elevation” value (E. coli K-12; RNA seq) was 3.4 × fold. The “aidB transcript fold elevation” value (E. coli K-12; RNA seq) was 4-6 × fold, the bacA transcript elevation (E. coli K-12; RNA seq) was 12 × and the cysK transcript reduction (E. coli K-12; RNA seq) was “SOX”. For the same compound, the cysM transcript reduction (E. coli K-12; RNA seq) was 292 ×, the ddlB transcript increase (E. coli K-12; RNA seq) was 30 × and the “dusB transcript fold elevation” value (E. coli K-12; RNA seq) was 1.18. For the same compound, the “dxs transcript fold increase” value (E. coli K-12; RNA seq) was 101, the hisA transcript elevation (E. coli K-12; RNA seq) was 6.2 and the hisB transcript elevation (E. coli K-12; RNA seq) was 162 ×. For the same compound, the hisC transcript elevation (E. coli K-12; RNA seq) was 117 ×, the hisD transcript elevation (E. coli K-12; RNA seq) was 10.9 × and the hisG transcript elevation (E. coli K-12; RNA seq) was 4.6 ×. The hisH transcript elevation (E. coli K-12; RNA seq) was 28 ×, the hisI transcript elevation (E. coli K-12; RNA seq) was 5 × and the “idi transcript fold increase” value (E. coli K-12; RNA seq) was 3.57. The “infB transcript fold elevation” value (E. coli K-12; RNA seq) was 3 × fold, the ispA transcript elevation (E. coli K-12; RNA seq) was 154 × and the “ispD transcript fold increase” value (E. coli K-12; RNA seq) was 2. The “ispE transcript fold increase” value (E. coli K-12; RNA seq) was 1.8, the “ispF transcript fold increase” value (E. coli K-12; RNA seq) was 2.6 and the “ispH transcript fold increase” value (E. coli K-12; RNA seq) was 2.2. The “katE transcript fold elevation” value (E. coli K-12; RNA seq) was 4-6 × fold, the murC transcript increase (E. coli K-12; RNA seq) was 26 × and the murD transcript increase (E. coli K-12; RNA seq) was 144 ×. It also gave a murE transcript increase (E. coli K-12; RNA seq) of 152 ×, a murF transcript increase (E. coli K-12; RNA seq) of 250 × and a murG transcript increase (E. coli K-12; RNA seq) of 199 ×. For the same compound, the “otsA transcript fold elevation” value (E. coli K-12; RNA seq) was 4-6 × fold, the prsA transcript elevation (E. coli K-12; RNA seq) was less than 2 × and the “pyrG transcript fold elevation” value (E. coli K-12; RNA seq) was 2.1 × fold. For the same compound, the “pyrH transcript fold elevation” value (E. coli K-12; RNA seq) was 3.5 × fold, the “rpoS transcript fold elevation” value (E. coli K-12; RNA seq) was 2.3 × fold and the “rsfs transcript fold decrease” value (E. coli K-12; RNA seq) was 19 × fold. The trpA transcript elevation (E. coli K-12; RNA seq) was 1049 ×, the trpB transcript elevation (E. coli K-12; RNA seq) was 1955 × and the trpC transcript elevation (E. coli K-12; RNA seq) was 606 ×. The trpD transcript elevation (E. coli K-12; RNA seq) was 443 ×, the trpE transcript elevation (E. coli K-12; RNA seq) was 541 × and the tryD transcript elevation (E. coli K-12; RNA seq) was 443 ×. The “ybaY transcript fold elevation” value (E. coli K-12; RNA seq) was 4-6 × fold, the “ycih transcript fold elevation” value (E. coli K-12; RNA seq) was 8 × fold and the yqgf transcript elevation (E. coli K-12; RNA seq) was 4.64 ×. For the same compound, the ftsI transcript elevation (E. coli K-12; RNA seq (value in parentheses)) was 109, the idtB transcript elevation (E. coli K-12; RNA seq (value in parentheses)) was 164 and the idtC transcript elevation (E. coli K-12; RNA seq (value in parentheses)) was 3.6. For the same compound, the “tRNA synthetases average increase” value (E. coli K-12; RNA seq, 13 tRNA synthetases detected) was 11.7 × fold, the “CspA transcript fold increase” value (E. coli K-12; RNA seq, vs control) was 1.6 × fold and the “nusA transcript fold increase” value (E. coli K-12; RNA seq, vs control) was 3 × fold. For the same compound, the “average fold decrease of decreased genes” value (E. coli K-12; SD 93) was 20.4, the “average fold increase of increased genes” value (E. coli K-12; SD 291) was 44 × fold and the “fold increase in mRNA or non-ribosomal RNA” value (E. coli K-12; after correcting for expected control reading of 82% for rRNA) was 2.75 × fold. The “fraction of reads that were rRNA” value (E. coli K-12; custom build of E. coli rRNA sequences) was 68.7%, the “median positive fold change, average mRNA class” value (E. coli K-12; platform not given) was 2.6 × and the “median positive fold change, stable mRNA class” value (E. coli K-12; platform not given) was 2.7 ×. The “median positive fold change, unstable mRNA class” value (E. coli K-12; platform not given) was 1.6 ×, the “ribD, ribB, ribE and ribF gene transcripts” value (E. coli K-12; platform not given) was “did not appear to be significantly elevated” and the Nlpl fold decrease (E. coli K-12; printed as protein, platform not given) was 32 × fold. For the same compound, the “cdsA mRNA increase” value (E. coli K-12; value in parentheses (RNA seq)) was 21 ×, the “midpoint of the non-ribosomal RNA peak” value (E coli K12 bacteria) was ~2,000 NT and the “reduction of 16S and 23S rRNA fraction relative to controls” value (E coli K12 bacteria) was 8.8%. For the same compound, the “fold increase in mRNA or non-ribosomal RNA relative to ribosomal RNA” value (E coli K12 bacteria; assuming mRNA is normally 2% of the total) was 5.5 × fold, the “16S and 23S rRNA as fraction of total RNA” value (E coli K12 bacteria; average of two replicates) was 42.5% and the “protein spots significantly changed” value (E coli; previous studies) was 28%. For the same compound, the “average fold change of proteins” value (E coli; prior protein results) was roughly 5 × fold, the proteins decreased (E coli; prior protein results) was 13% and the proteins increased (E coli; prior protein results) was 15%.
